ChEMBL document CHEMBL1201862, “PubChem BioAssay data set” (2004)
Counter-ions that a name gives are not always drawn. Activity calls are given as the source filed them.

Assays:
[1] = target: Cytochrome P450 3A4 (Homo sapiens, UniProt P08684); conditions: Potency;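 also: confirmatory qHTS run detecting inhibitors and substrates of CYP3A4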
[2] = target: T1, Oxysterols receptor LXR-beta (Homo sapiens, UniProt P55055); format: functional, cell-based;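 also: Cell-based luminescence dose-response assay of agonist activity at LXR, run as a confirmatory counterscreen to a daf-12 agonist screen; agonist potency from rising luciferase signal of a Gal4-LXR reporter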
T1 sequence (P55055 whole entry): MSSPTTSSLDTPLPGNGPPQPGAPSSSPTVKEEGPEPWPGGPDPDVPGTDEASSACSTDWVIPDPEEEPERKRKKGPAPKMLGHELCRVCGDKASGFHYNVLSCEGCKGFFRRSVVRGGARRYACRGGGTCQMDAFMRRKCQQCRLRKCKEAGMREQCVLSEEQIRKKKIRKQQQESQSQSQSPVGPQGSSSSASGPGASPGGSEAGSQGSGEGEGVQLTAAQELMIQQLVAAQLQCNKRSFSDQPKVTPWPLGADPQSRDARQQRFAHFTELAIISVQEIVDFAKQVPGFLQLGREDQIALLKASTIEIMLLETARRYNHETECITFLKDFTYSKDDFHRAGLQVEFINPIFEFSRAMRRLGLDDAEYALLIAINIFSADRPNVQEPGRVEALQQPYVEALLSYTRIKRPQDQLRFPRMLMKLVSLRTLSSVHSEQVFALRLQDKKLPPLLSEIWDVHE

[3] = cells
[4] = target: T2, Aminopeptidase N (Plasmodium falciparum FcB1/Columbia, UniProt O96935); test: P. falciparum M1AAP inhibitors, biochemical, fluorogenic H-Leu-NHMec substrate, 1536-well (AID 1445); parameters: species or system Plasmodium falciparum 3D7, 3D7
T2 sequence (O96935 whole entry): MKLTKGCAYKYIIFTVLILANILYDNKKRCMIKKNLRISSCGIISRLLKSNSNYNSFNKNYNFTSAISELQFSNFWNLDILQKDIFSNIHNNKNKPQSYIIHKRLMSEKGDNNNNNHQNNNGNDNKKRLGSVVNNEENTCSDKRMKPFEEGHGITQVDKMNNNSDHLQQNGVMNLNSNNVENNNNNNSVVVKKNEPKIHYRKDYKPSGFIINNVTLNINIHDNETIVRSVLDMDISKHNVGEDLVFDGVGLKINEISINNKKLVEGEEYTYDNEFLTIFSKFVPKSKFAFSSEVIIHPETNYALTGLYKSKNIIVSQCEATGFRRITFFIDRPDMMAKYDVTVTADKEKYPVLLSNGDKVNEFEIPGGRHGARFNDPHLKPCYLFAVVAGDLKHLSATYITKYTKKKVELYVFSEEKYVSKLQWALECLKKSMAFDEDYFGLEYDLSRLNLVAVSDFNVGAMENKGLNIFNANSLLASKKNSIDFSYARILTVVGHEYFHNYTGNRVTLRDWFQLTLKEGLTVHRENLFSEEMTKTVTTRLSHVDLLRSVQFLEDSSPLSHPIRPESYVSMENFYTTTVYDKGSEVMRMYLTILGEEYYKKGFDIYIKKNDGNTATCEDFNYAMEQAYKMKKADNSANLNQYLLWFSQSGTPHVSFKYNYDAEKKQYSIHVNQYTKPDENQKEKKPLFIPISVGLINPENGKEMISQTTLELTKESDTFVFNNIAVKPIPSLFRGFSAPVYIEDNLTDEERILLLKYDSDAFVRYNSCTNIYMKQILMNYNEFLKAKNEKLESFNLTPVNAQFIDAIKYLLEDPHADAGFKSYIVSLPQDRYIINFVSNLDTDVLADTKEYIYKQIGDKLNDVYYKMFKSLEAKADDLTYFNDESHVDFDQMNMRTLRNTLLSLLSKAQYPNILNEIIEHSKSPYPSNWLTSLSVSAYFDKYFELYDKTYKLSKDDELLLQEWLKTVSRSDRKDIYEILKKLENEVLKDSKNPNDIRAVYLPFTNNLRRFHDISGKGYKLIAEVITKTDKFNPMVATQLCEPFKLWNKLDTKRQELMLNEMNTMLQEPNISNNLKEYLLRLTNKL

[5] = Luminescence Cell-Based Dose Retest to Confirm Inhibitors of Cancer Stem Cells. [Related pubchem assays (depositor defined):AID2717, AID2721]; format: functional; conditions: Homo sapiens
[6] = target: Albumin (Bos taurus, UniProt P02769); test: Counterscreen for inhibitors of T-cell receptor (TCR)-CD3 interaction: Fluorescence-based biochemical high throughput dose response assay to identify inhibitors of T-cell receptor (TCR)-CD3 interaction using a TAMRA-labeled BSA probe.; format: functional
[7] = Luminescence-based cell-based high throughput dose response assay to identify activators of the DAF-12 from the parasite S. stercoralis (ssDAF-12).; format: functional
[8] = target: T1, Oxysterols receptor LXR-beta; test: LXR agonists, Gal4 luciferase reporter, dose response, counter-screen for ssDAF-12 agonist project, cell-based, luminescence, HEK293, S. stercoralis campaign (AID 720737); format: functional; conditions: read-out: IC50 (the source's name)
[9] = target: T3, Heat shock factor protein 1 (Mus musculus, UniProt P38532); test: HSF1 potentiators in luciferase reporter cells, confirmation, cell-based, NIH3T3, luminescence, dose retest (AID 435004); format: functional;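 also: stress induced by proteasome inhibitor MG132 added 30 min after compound; luciferase reporter driven by HSF1 response element in NIH3T3 cells; actives raise luminescence as potentiators of the MG132 stress response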
T3 sequence (P38532 whole entry): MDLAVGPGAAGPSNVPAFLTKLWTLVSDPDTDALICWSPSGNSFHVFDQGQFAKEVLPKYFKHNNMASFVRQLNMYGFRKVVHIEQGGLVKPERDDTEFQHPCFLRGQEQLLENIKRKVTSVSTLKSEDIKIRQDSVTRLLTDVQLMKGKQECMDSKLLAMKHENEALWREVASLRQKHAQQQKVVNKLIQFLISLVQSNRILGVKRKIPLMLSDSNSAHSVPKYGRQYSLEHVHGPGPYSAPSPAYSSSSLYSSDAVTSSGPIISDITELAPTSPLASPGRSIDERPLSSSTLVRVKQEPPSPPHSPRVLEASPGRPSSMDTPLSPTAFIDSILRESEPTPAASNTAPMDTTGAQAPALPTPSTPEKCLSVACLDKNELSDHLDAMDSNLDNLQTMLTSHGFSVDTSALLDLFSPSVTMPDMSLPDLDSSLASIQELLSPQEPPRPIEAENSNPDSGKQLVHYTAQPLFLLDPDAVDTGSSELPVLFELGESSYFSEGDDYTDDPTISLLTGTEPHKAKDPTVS

[10] = inhibitors of Vif binding to APOBEC3G peptide, primary screen, biochemical, TR-FRET, GST-Vif 1-94, biotin-A3G peptide, dose response retest (AID 1117319); format: functional;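 also: TR-FRET signal of purified GST-Vif binding a biotinylated A3G peptide; inhibitors lower the FRET signal by blocking Vif and A3G binding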
[11] = target: Voltage-dependent T-type calcium channel subunit alpha-1H (Homo sapiens, UniProt O95180); format: functional;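 also: channel activity triggered by adding a high calcium stimulation buffer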
[12] = target: T3, Heat shock factor protein 1; test: inhibition of MG132-induced HSE-luciferase signal, confirmation, cell-based, NIH3T3, luminescence, dose retest (AID 2382); format: functional;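 also: NIH3T3 fibroblasts with HSF1-driven luciferase reporter stressed by proteasome inhibitor MG132; luminescence from HSF1-driven luciferase expression after 8 hours of MG132 stress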
[13] = cytotoxicity in HPDE-C7 cells, cell-based, fluorescence, HTS (AID 430); format: functional; conditions: Homo sapiens
[14] = cytotoxicity in KRAS-transformed pancreatic duct cells, primary screen, cell-based, fluorescence, HTS (AID 431); format: functional; conditions: Homo sapiens;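 also: cell line used: HPDE-C7K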
[15] = target: Cytochrome P450 2C9 (Homo sapiens, UniProt P11712)
[16] = target: T4, Leucine aminopeptidase (Plasmodium falciparum 3D7, UniProt Q8IL11); test: P. falciparum M17LAP inhibitors, primary screen, biochemical, fluorogenic H-Leu-NHMec substrate, 1536-well (AID 1619); format: functional
T4 sequence (Q8IL11 whole entry): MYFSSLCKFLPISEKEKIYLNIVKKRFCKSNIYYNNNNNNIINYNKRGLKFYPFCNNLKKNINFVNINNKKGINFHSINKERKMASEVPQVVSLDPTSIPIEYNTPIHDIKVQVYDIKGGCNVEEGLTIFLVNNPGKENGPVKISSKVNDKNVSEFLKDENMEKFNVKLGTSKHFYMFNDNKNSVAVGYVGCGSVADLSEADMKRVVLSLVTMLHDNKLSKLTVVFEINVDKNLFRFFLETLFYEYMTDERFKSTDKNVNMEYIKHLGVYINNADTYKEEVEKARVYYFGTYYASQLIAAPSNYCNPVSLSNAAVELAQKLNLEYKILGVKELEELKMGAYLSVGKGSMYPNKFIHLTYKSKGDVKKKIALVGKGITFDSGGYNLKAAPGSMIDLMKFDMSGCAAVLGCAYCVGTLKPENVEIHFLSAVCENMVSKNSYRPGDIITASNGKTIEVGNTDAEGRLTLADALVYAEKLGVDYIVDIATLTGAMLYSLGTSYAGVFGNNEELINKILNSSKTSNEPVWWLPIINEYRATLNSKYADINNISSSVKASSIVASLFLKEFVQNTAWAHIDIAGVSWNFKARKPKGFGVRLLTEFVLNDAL

[17] = target: DNA dC->dU-editing enzyme APOBEC-3G (Homo sapiens, UniProt Q9HC16); test: Dose Response confirmation of small molecule APOBEC3G DNA Deaminase Inhibitors via a fluorescence-based single-stranded DNA deaminase assay. [Related pubchem assays (depositor defined):AID493012, AID493028]; format: functional
Chain of DNA dC->dU-editing enzyme APOBEC-3G (Q9HC16 whole entry): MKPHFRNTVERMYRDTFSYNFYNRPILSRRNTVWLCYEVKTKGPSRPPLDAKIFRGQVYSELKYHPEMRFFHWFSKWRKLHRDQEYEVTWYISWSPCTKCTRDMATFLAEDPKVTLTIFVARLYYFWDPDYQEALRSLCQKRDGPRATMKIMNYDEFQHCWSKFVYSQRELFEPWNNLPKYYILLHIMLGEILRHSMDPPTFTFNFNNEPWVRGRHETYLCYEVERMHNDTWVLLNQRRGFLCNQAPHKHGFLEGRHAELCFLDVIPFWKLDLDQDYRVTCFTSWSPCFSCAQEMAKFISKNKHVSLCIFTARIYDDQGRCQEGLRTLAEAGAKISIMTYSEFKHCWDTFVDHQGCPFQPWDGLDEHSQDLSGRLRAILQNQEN

Chain of Voltage-dependent T-type calcium channel subunit alpha-1H (O95180 whole entry): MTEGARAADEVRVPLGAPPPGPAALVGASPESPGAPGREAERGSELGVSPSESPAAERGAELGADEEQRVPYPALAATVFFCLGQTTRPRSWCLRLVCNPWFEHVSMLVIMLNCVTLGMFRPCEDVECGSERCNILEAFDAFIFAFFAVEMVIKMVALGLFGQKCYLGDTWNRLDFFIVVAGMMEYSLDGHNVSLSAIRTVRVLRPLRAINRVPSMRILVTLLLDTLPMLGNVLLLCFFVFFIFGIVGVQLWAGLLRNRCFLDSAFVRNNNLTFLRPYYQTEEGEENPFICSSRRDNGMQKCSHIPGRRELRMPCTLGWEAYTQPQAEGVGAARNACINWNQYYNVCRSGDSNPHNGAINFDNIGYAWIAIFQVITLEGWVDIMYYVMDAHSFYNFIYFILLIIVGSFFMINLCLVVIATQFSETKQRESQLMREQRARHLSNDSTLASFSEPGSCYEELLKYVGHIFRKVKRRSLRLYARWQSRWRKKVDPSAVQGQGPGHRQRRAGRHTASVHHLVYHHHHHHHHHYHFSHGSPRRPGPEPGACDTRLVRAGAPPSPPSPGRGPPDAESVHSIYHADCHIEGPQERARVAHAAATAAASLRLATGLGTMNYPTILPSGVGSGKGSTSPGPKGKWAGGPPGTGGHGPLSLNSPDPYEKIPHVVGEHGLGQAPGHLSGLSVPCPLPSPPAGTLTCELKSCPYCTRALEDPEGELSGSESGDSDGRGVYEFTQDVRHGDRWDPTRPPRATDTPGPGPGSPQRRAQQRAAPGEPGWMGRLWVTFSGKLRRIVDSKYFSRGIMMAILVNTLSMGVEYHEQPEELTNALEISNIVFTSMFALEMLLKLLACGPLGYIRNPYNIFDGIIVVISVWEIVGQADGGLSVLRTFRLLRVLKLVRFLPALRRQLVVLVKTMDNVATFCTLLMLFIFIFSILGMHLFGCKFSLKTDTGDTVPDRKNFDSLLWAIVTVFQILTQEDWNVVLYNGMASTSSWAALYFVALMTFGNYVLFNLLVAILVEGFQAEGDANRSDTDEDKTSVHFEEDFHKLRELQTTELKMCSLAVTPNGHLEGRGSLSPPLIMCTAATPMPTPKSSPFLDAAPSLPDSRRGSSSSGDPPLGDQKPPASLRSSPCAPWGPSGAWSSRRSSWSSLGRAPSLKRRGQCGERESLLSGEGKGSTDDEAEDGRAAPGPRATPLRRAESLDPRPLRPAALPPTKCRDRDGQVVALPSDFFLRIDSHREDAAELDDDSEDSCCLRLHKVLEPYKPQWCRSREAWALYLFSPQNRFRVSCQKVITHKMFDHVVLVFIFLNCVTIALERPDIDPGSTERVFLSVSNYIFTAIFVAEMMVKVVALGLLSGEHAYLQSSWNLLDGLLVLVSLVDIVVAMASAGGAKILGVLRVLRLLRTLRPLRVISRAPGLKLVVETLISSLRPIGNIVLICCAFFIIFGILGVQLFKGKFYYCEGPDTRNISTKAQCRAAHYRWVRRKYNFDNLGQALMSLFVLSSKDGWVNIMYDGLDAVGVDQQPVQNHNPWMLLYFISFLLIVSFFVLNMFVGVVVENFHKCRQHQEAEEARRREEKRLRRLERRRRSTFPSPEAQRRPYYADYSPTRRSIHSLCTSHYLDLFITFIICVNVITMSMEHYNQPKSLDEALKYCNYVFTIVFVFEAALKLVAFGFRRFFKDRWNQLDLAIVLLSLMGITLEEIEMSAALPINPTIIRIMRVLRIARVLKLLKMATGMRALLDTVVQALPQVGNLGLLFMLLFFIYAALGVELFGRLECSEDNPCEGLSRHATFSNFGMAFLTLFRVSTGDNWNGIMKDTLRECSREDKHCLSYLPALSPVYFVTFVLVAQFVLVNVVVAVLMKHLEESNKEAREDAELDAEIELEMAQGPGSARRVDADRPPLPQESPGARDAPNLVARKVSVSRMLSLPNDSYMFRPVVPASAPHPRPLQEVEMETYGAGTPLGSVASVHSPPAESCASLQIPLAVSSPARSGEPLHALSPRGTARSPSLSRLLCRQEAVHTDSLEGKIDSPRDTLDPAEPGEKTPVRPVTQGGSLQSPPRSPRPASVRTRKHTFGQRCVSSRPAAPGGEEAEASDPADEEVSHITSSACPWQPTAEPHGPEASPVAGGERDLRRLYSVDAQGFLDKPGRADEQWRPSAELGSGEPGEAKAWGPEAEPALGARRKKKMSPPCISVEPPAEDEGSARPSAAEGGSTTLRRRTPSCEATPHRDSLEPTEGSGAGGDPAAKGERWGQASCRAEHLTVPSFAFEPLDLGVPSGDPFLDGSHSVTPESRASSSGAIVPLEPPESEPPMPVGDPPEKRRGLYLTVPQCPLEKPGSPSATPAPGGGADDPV
Chain of Cytochrome P450 3A4 (P08684 whole entry, the tested form may be a part): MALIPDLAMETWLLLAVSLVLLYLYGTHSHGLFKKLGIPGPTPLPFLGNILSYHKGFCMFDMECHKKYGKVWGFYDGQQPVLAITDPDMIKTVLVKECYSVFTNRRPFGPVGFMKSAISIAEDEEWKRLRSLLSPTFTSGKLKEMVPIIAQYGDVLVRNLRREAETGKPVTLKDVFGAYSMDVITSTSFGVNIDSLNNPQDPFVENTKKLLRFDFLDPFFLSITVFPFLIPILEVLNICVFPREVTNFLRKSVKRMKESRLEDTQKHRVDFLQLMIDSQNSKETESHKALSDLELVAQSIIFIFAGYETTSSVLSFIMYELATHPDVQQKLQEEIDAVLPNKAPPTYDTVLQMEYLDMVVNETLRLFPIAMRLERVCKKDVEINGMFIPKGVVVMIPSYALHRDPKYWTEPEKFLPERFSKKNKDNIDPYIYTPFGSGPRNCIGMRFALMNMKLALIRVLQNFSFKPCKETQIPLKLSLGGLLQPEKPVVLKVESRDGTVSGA
Chain of Cytochrome P450 2C9 (P11712 whole entry): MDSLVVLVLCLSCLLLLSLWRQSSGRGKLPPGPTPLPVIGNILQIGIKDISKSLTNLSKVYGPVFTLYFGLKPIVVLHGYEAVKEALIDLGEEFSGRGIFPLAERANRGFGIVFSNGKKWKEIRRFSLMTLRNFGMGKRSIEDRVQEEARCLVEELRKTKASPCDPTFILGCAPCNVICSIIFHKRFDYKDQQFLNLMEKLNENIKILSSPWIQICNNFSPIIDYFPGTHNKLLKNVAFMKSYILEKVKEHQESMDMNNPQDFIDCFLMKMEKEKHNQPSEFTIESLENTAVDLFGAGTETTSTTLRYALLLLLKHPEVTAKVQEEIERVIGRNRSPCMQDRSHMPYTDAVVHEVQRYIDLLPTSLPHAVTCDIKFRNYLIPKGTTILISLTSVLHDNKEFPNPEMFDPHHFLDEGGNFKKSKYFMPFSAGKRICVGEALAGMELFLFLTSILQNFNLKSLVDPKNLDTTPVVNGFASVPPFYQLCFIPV
Chain of Albumin (P02769 whole entry): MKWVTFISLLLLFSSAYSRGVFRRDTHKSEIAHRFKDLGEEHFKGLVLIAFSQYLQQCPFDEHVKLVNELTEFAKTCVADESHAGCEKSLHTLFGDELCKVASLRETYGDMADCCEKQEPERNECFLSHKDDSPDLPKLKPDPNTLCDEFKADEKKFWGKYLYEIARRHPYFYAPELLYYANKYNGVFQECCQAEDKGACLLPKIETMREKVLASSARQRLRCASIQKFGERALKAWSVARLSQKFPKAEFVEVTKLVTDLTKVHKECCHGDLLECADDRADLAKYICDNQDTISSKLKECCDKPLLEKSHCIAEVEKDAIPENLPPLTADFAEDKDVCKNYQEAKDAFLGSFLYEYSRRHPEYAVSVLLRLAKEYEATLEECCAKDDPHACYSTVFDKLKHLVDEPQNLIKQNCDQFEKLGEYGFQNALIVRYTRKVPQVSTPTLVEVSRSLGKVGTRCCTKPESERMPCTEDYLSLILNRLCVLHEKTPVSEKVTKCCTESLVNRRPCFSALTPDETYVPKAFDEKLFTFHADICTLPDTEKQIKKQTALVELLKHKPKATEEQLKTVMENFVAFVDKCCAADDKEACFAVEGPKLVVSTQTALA

Structure (SMILES): COc1cc2c(cc1OC)C(=O)OC2 [METAMECONINE]
- AC50 [1]: 12.6 µM (inconclusive)

Structure (SMILES): Cc1oc(-c2ccc(-c3ccccc3)cc2)nc1CN(CCO)C(C)C
- EC50 [2]: > 67.5 µM (inactive)
- EC50 [3]: > 67.5 µM (inactive)

Structure (SMILES): c1ccc(N2CC3COc4ccccc4C3=N2)cc1 (centres undefined)
- EC50 [2]: > 67.4 µM (inactive)
- EC50 [3]: > 67.4 µM (inactive)

Structure (SMILES): O=C(CSc1nnc(-c2ccccc2O)n1Cc1ccccc1)NNC(=O)c1ccccc1O
- IC50 [4]: 130 µM (active)
- AC50 [5]: 7.6 µM (active)
- IC50 [6]: > 94.1 µM (inactive)

Structure (SMILES): Cc1c(C(c2ccccc2Cl)c2c(O)oc3ccccc3c2=O)c(=O)n(-c2ccccc2)n1C (centres undefined)
- IC50 [4]: 77.1 µM (active)

Structure (SMILES): CCCCN(C(=O)CSc1cc(C)c2ccc(OC)cc2n1)c1c(N)n(Cc2ccccc2)c(=O)[nH]c1=O
- IC50 [7]: > 67.5 µM (inactive)
- EC50 [8]: > 67.5 µM (inactive)

Structure (SMILES): COC(=O)[C@@H](Cc1c[nH]c2ccccc12)NC(=O)c1ccc2c(c1)OCO2
- EC50 [9]: > 260 µM (inactive)
- IC50 [7]: > 67.6 µM (inactive)
- EC50 [8]: > 67.6 µM (inactive)

Structure (SMILES): CN(C)c1ccc(-c2cc3ccccc3c(=O)o2)cc1
- EC50 [2]: > 67.6 µM (inactive)
- EC50 [3]: > 67.6 µM (inactive)

Structure (SMILES): COc1ccc2cc(C3(C)NC(=O)N(CC(=O)Nc4c(C)n(C)n(-c5ccccc5)c4=O)C3=O)ccc2c1 (centres undefined)
- IC50 [10]: > 100 µM (active)

Structure (SMILES): CCn1c(SCc2nc(-c3ccccc3)no2)nc2ccccc21
- EC50 [11]: 331 µM (active)

Structure (SMILES): O=c1c(O)c(-c2ccccc2)oc2ccccc12 [FLAVONOL]
- AC50 [1]: 25.1 µM (inconclusive)

Structure (SMILES): CC(C)NC1=NN=C(c2cccs2)CS1
- EC50 [2]: > 67.6 µM (inactive)
- EC50 [3]: > 67.6 µM (inactive)

Structure (SMILES): CN(C)NC1CCS(=O)(=O)C1 (centres undefined)
- IC50 [10]: > 100 µM (active)

Structure (SMILES): COc1ccc(OC)c(C2C3=C(O)CCCC3=NC(C)=C2C(=O)Nc2cccnc2)c1 (centres undefined)
- IC50 [4]: 52.9 µM (active)

Structure (SMILES): Cc1cccc(OCCNC(=O)c2cncc(Br)c2)c1
- IC50 [7]: > 67.5 µM (inactive)
- EC50 [8]: > 67.5 µM (inactive)

Structure (SMILES): CN(C)S(=O)(=O)N(CC(=O)Nc1ccc2ccccc2c1)c1ccccc1
- EC50 [11]: 3.79 µM (active)

Structure (SMILES): COC(=O)NC(/C=C/c1ccccc1)[C@]1(C(C)=O)CCCC1=O (some centres undefined)
- AC50 [1]: 3.98 µM (inconclusive)

Structure (SMILES): O=Cc1cn(CC(=O)N2CCCc3ccccc32)c2ccccc12
- IC50 [4]: 22.8 µM (active)

Structure (SMILES): CC(/C=N/NC(=O)Cn1cnc2ccccc21)=C\c1ccccc1
- EC50 [12]: > 195 µM (not active)
- IC50 [7]: > 67.5 µM (inactive)
- EC50 [8]: > 67.5 µM (inactive)

Structure (SMILES): CCOc1ccc2[nH]c(SCc3ccc(C(=O)OC)o3)nc2c1
- EC50 [9]: > 260 µM (inactive)
- IC50 [10]: > 100 µM (active)

Structure (SMILES): CC1=C(/C=C/C(C)=C/C=C/C(C)=C/C(=O)O)C(C)(C)CCC1 [TRETINOIN]
- EC50 [13]: > 20 µM (not active)
- EC50 [14]: > 20 µM (not active)
- AC50 [1]: 39.8 µM (inconclusive)

Structure (SMILES): CN1C(=O)C(CC(=O)Nc2ccc(F)cc2)N(Cc2cccs2)C1=S (centres undefined)
- IC50 [7]: > 67.5 µM (inactive)
- EC50 [8]: > 67.5 µM (inactive)

Structure (SMILES): O=C(NCc1ccc2c(c1)OCO2)C1CC(c2cccc(Br)c2)=NO1 (centres undefined)
- EC50 [11]: 1.96 µM (active)
- AC50 [15]: inconclusive

Structure (SMILES): NNCc1ccccc1 [BENZYLHYDRAZINE HYDROCHLORIDE]
- AC50 [1]: 7.94 µM (inconclusive)

Structure (SMILES): CCCC(c1nnnn1Cc1ccco1)N1CCN(c2cc(Cl)ccc2C)CC1 (centres undefined)
- EC50 [11]: 0.728 µM (active)

Structure (SMILES): Sc1nnc(-c2ccco2)[nH]1
- IC50 [16]: 11 µM (active)
- IC50 [17]: 12 µM (active)
